Consider one molecule from US20040053918A1, “Erythropoietin production potentiator” (KOWA CO., LTD., priority 2002, published 2004).

Molecules are shown by their SMILES.

Type in all cases: cell-based
Experiment [1] relates to EPO enhancer and potentiator fragment luciferase reporter in Hep3B cells. In words: EPO potentiator activity, luciferase reporter (Pwt) in Hep3B cells, hypoxic induction. To be noted: control HI 52.2±10.7. (In general: A reporter such as luciferase makes a cellular process visible.)
Protocol: Hep3B cells, which produce EPO at a low O2 partial pressure, were cultured in an amount of 1.5-3.0×10^6 cells/petri dish (100 mm) by use of Dulbecco's modified eagles' medium (DMEM)/10% fetal calf serum (FCS) (10 ml). […] EPO contained in the resultant culture supernatant was measured through ELISA. Separately, EPO potentiator activity was measured in the following manner. The luciferase-pXP2 (serving as a reporter gene) of a Hep3B wild-type gene was ligated with an enhancer and potentiator fragment (144 bp), to thereby produce a modified Hep3B wild-type gene as Pwt. Hep3B cells were cultured in an amount of 1×10^6 cells/petri dish (30 mm) by use of 4-mL DMEM/10% FCS, and the above modified wild-type (2 μg) and β-galactosidase gene (1 μg) (serving as an internal standard) were inserted into each of the cultured cells through the lipofectin method. […] After completion of culture, luciferase activity and β-galactosidase activity of the resultant cell extract were determined. EPO potentiator activity is represented by the following formula.
HI (hypoxic induction)=(1% O2 luciferase/β-galactosidase)/(21% O2 luciferase/β-galactosidase)
Experiment [2] deals with Hep3B cells. Put plainly: EPO produced by Hep3B cells under 1% O2, ELISA of culture supernatant. As for the experimental part: (§1) Hep3B cells, which produce EPO at a low O2 partial pressure, were cultured in an amount of 1.5-3.0×10^6 cells/petri dish (100 mm) by use of Dulbecco's modified eagles' medium (DMEM)/10% fetal calf serum (FCS) (10 ml). The next day, the culture liquid of each petri dish was renewed, and a predetermined amount of compound 1 was added thereto, followed by culture for 24 hours at 37° C. under 1% O2 or 21% O2. EPO contained in the resultant culture supernatant was measured through ELISA. Separately, EPO potentiator activity was measured in the following manner. The luciferase-pXP2 (serving as a reporter gene) of a Hep3B wild-type gene was ligated with an enhancer and potentiator fragment (144 bp), to thereby produce a modified Hep3B wild-type gene as Pwt. Hep3B cells were cultured in an amount of 1×10^6 cells/petri dish (30 mm) by use of 4-mL DMEM/10% FCS, and the above modified wild-type (2 μg) and β-galactosidase gene (1 μg) (serving as an internal standard) were inserted into each of the cultured cells through the lipofectin method. […] After completion of culture, luciferase activity and β-galactosidase activity of the resultant cell extract were determined. EPO potentiator activity is represented by the following formula.
A general note: An ELISA detects its analyte on a solid surface through an enzyme-linked reagent.

In experiment [3] the test system is Hep3B cells. In words: EPO produced by Hep3B cells under 21% O2, ELISA of culture supernatant. As for the experimental part:
as §1

In the case of `COc1cc(C=CCCCN2CCCN(CCCC=Cc3cc(OC)c(OC)c(OC)c3)CC2)cc(OC)c1OC` [compound 1, N,N′-bis(5-(3,4,5-trimethoxyphenyl)-4-pentenyl)homopiperazine], the figures for the “HI (hypoxic induction), EPO potentiator activity” value in experiment [1] (10 μM compound 1 alone) and in experiment [1] (10 μM compound 1 in the presence of 10^−3M L-NMMA) were 91.0±36.6 and 63.4±7.5, respectively. Also, the “amount of EPO” value turned out to be 71.0±6.0 mU/protein μg in experiment [2] (1% O2 (low O2 partial pressure), 24 h, 10 μM compound 1, control 39.5±9.1); 76.0±13.5 mU/protein μg in experiment [2] (1% O2, 24 h, 15 μM compound 1, control 39.5±9.1); 91.5±17.8 mU/protein μg in experiment [2] (1% O2, 24 h, 30 μM compound 1, control 39.5±9.1); 49.5±2.3 mU/protein μg in experiment [3] (21% O2 (normal O2 partial pressure), 24 h, 10 μM compound 1, control 33.6±8.7); 56.4±2.2 mU/protein μg in experiment [3] (21% O2, 24 h, 15 μM compound 1, control 33.6±8.7); 116.8±5.2 mU/protein μg in experiment [3] (21% O2, 24 h, 30 μM compound 1, control 33.6±8.7).
